Target: Dual specificity protein kinase CLK4 (Mus musculus, UniProt O35493)
Assay: Inhibition of GST-fused mouse recombinant CLK4 expressed in Escherichia coli using GRSRSRSRSRSR peptide as substrate incubated for 30 mins in presence of ATP by scintillation counting method
Conditions: not given

Sequence of Dual specificity protein kinase CLK4 (O35493 whole entry, the tested form may be a part): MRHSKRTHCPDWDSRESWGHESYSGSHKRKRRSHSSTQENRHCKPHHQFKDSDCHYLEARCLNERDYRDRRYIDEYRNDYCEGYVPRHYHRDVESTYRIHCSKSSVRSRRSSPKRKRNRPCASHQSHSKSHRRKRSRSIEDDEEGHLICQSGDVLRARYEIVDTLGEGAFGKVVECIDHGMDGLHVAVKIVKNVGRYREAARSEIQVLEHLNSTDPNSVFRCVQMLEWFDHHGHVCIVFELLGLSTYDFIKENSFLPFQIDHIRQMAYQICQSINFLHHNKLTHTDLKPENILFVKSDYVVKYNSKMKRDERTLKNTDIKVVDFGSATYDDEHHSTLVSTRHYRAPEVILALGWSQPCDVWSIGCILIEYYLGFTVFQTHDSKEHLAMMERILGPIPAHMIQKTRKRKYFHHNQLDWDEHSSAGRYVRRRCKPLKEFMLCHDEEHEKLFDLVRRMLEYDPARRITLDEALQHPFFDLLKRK

Question: Which IC50 does the source give for O=C1NC(Nc2ccccc2)=N/C1=C\c1ccc(F)cc1 here?
Answer: 2.8 µM

Question: Which IC50 does the source give for COc1ccc(/C=C2\N=C(Nc3ccccc3)NC2=O)cc1O here?
Answer: 4 µM

Question: Which IC50 does the source give for CCCCCCc1ccc(NC2=N/C(=C\c3ccc4c(c3)OCO4)C(=O)N2)cc1 here?
Answer: 4.1 µM

Target: Dual specificity protein kinase CLK3 (Mus musculus, UniProt O35492)
Assay: Inhibition of GST-fused mouse recombinant CLK3 expressed in Escherichia coli using GRSRSRSRSRSR peptide as substrate incubated for 30 mins in presence of ATP by scintillation counting method
Conditions: not given

Sequence of Dual specificity protein kinase CLK3 (O35492 whole entry, the tested form may be a part): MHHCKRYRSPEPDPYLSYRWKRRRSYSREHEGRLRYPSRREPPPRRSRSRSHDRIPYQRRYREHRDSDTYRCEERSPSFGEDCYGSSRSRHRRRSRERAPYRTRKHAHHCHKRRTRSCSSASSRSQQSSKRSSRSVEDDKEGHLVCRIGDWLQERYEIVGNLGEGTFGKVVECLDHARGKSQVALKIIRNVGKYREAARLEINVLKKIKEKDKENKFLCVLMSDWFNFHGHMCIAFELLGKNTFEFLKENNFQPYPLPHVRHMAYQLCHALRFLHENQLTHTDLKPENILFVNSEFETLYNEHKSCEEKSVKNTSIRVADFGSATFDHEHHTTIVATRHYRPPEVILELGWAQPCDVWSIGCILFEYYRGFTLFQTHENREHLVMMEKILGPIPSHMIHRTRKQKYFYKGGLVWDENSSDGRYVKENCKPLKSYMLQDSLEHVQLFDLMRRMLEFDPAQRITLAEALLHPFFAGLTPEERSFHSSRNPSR

Question: Which IC50 does the source give for O=C1NC(Nc2ccccc2)=N/C1=C\c1ccc(F)cc1 here?
Answer: > 10 µM

Target: Dual specificity protein kinase CLK1 (Mus musculus, UniProt P22518)
Assay: Inhibition of GST-fused mouse recombinant CLK1 expressed in Escherichia coli using GRSRSRSRSRSR peptide as substrate incubated for 30 mins in presence of ATP by scintillation counting method
Conditions: not given

Sequence of Dual specificity protein kinase CLK1 (P22518 whole entry, the tested form may be a part): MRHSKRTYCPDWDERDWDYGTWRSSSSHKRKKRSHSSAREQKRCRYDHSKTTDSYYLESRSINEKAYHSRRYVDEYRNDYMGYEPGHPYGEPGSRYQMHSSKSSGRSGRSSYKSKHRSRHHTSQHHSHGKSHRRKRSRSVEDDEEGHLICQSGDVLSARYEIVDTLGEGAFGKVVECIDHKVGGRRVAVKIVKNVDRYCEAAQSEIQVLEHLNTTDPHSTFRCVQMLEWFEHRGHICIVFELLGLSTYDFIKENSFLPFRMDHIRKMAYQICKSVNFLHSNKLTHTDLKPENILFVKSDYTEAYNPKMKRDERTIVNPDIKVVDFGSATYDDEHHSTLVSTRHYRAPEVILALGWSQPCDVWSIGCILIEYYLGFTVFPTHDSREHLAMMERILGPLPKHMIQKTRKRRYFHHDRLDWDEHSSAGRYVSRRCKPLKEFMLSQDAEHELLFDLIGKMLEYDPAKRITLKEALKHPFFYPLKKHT

Question: For O=C1NC(Nc2ccccc2)=N/C1=C\c1ccc(F)cc1, which IC50 is on record?
Answer: 3.2 µM

Question: With COc1ccc(/C=C2\N=C(Nc3ccccc3)NC2=O)cc1O as the molecule, how does the IC50 read?
Answer: 4.3 µM

Question: With CCCCCCc1ccc(NC2=N/C(=C\c3ccc4c(c3)OCO4)C(=O)N2)cc1 as the molecule, how does the IC50 read?
Answer: > 10 µM

Target: Dual specificity protein kinase CLK2 (Mus musculus, UniProt O35491)
Assay: Inhibition of mouse recombinant GST-fused CLK2 expressed in Escherichia coli using GRSRSRSRSRSR peptide as substrate incubated for 30 mins in presence of ATP by scintillation counting method
Conditions: not given

Sequence of Dual specificity protein kinase CLK2 (O35491 whole entry, the tested form may be a part): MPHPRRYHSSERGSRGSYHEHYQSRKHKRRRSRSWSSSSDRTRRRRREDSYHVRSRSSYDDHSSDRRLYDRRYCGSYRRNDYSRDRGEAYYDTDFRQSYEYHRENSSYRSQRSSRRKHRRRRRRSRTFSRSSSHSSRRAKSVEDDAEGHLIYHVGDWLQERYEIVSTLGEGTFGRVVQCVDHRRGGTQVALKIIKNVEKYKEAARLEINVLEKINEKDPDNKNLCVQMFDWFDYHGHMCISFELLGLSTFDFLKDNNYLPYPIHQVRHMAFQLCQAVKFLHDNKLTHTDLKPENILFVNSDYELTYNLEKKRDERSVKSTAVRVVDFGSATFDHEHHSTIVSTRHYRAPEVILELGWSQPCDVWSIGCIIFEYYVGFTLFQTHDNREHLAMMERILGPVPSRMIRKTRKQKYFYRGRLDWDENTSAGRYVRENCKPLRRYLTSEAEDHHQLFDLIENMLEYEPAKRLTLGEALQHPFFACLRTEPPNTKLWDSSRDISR

Question: Which IC50 does the source give for O=C1NC(Nc2ccccc2)=N/C1=C\c1ccc(F)cc1 here?
Answer: > 10 µM

Question: With COc1ccc(/C=C2\N=C(Nc3ccccc3)NC2=O)cc1O as the molecule, how does the IC50 read?
Answer: ≥ 10 µM

Target: Dual specificity tyrosine-phosphorylation-regulated kinase 1A (Homo sapiens, UniProt Q13627)
Assay: Inhibition of GST-fused human recombinant DYRK1A expressed in Escherichia coli using GRSRSRSRSRSR peptide as substrate incubated for 30 mins in presence of ATP by scintillation counting method
Conditions: not given

Question: Which IC50 does the source give for O=C1NC(Nc2ccccc2)=N/C1=C\c1ccc(F)cc1 here?
Answer: 9.5 µM

Question: With COc1ccc(/C=C2\N=C(Nc3ccccc3)NC2=O)cc1O as the molecule, how does the IC50 read?
Answer: 2 µM

Question: With CCCCCCc1ccc(NC2=N/C(=C\c3ccc4c(c3)OCO4)C(=O)N2)cc1 as the molecule, how does the IC50 read?
Answer: > 10 µM

Target: Dual specificity tyrosine-phosphorylation-regulated kinase 1B (Homo sapiens, UniProt Q9Y463)
Conditions: not given

Sequence of Dual specificity tyrosine-phosphorylation-regulated kinase 1B (Q9Y463 whole entry): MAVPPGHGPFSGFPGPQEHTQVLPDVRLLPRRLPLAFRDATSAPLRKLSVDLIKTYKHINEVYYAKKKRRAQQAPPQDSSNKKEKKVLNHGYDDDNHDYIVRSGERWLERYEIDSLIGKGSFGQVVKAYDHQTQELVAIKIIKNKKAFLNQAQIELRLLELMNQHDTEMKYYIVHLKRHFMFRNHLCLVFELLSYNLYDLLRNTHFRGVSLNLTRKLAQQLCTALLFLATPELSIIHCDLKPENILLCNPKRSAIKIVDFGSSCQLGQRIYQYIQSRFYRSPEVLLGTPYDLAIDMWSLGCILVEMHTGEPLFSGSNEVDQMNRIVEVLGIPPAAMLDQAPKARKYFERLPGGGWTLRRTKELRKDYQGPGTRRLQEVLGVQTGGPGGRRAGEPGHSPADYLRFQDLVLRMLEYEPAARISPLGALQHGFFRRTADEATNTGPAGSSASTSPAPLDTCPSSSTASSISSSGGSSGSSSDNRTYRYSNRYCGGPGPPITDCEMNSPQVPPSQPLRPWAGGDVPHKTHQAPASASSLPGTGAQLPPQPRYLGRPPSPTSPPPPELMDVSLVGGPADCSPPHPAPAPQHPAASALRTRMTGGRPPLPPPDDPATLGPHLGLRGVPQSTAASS

Question: Which IC50 does the source give for O=C1NC(Nc2ccccc2)=N/C1=C\c1ccc(F)cc1 here?
Answer: > 10 µM

Question: Which IC50 does the source give for COc1ccc(/C=C2\N=C(Nc3ccccc3)NC2=O)cc1O here?
Answer: 2.8 µM

Question: With CCCCCCc1ccc(NC2=N/C(=C\c3ccc4c(c3)OCO4)C(=O)N2)cc1 as the molecule, how does the IC50 read?
Answer: > 10 µM

Target: T1, Dual specificity tyrosine-phosphorylation-regulated kinase 2 (Homo sapiens, UniProt Q92630)
T1 sequence (Q92630 whole entry): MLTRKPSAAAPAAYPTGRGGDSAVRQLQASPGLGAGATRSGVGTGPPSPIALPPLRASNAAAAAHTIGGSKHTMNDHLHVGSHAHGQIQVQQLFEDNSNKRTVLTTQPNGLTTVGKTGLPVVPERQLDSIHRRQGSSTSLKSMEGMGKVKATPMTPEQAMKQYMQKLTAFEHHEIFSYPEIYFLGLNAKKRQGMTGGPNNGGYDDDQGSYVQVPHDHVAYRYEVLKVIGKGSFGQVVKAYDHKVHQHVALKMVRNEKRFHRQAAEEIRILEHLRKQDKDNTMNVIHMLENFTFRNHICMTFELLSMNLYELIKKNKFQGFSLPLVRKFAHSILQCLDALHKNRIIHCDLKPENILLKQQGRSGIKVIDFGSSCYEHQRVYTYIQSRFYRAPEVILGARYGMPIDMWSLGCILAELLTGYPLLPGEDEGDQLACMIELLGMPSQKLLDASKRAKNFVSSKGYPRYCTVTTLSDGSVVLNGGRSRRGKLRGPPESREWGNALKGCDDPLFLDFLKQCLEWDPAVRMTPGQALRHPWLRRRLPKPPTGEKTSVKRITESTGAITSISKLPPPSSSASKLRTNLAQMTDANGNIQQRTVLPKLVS
Assay: Inhibition of GST-fused human recombinant DYRK2 expressed in Escherichia coli using GRSRSRSRSRSR peptide as substrate incubated for 30 mins in presence of ATP by scintillation counting method
Conditions: not given

Question: Which IC50 does the source give for COc1ccc(/C=C2\N=C(Nc3ccccc3)NC2=O)cc1O here?
Answer: 2.1 µM

Question: Which IC50 does the source give for CCCCCCc1ccc(NC2=N/C(=C\c3ccc4c(c3)OCO4)C(=O)N2)cc1 here?
Answer: 9.5 µM

Target: T2, Dual specificity tyrosine-phosphorylation-regulated kinase 3 (Homo sapiens, UniProt O43781)
T2 sequence (O43781 whole entry): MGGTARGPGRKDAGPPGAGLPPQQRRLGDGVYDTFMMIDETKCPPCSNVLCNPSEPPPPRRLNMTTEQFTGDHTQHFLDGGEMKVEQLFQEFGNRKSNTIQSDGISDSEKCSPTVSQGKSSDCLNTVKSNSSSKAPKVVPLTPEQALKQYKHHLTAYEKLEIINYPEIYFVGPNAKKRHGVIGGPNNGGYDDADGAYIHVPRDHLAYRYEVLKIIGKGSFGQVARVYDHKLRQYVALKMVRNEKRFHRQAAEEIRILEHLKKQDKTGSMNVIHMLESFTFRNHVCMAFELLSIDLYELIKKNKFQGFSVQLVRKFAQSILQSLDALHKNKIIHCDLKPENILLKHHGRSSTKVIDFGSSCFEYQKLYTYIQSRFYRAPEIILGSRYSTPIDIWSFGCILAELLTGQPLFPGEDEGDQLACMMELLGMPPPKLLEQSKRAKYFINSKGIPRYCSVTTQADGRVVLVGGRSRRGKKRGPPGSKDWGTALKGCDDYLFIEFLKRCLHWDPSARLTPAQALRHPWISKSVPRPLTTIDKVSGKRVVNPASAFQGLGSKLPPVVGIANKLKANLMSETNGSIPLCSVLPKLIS
Assay: Inhibition of GST-fused human recombinant DYRK3 expressed in Escherichia coli using GRSRSRSRSRSR peptide as substrate incubated for 30 mins in presence of ATP by scintillation counting method
Conditions: not given

Question: For COc1ccc(/C=C2\N=C(Nc3ccccc3)NC2=O)cc1O, which IC50 is on record?
Answer: 2.4 µM

Target: Serine/threonine-protein kinase pim-1 (Homo sapiens, UniProt P11309)
Assay: Inhibition of human recombinant Pim1 expressed in Escherichia coli using histone H1 as substrate incubated for 30 mins in presence of ATP by scintillation counting method
Conditions: not given

Sequence of Serine/threonine-protein kinase pim-1 (P11309 whole entry): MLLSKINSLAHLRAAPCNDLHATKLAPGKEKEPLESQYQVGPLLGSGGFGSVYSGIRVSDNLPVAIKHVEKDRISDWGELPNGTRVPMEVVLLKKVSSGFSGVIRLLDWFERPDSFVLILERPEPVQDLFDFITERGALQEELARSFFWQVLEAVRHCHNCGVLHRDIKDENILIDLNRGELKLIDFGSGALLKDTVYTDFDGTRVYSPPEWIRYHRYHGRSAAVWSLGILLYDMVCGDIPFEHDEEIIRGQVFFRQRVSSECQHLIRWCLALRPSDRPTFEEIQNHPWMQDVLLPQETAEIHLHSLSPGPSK

Question: Which IC50 does the source give for O=C1NC(Nc2ccccc2)=N/C1=C\c1ccc(F)cc1 here?
Answer: > 10 µM

Question: Which IC50 does the source give for COc1ccc(/C=C2\N=C(Nc3ccccc3)NC2=O)cc1O here?
Answer: 1.9 µM

Target: Casein kinase 2 (Homo sapiens, UniProt P67870+P68400+P19784+Q8NEV1)
Assay: Inhibition of human recombinant CK2 using RRRDDDSDDD peptide as substrate incubated for 30 mins in presence of ATP by scintillation counting method
Format: protein assay
Conditions: not given

Question: For O=C1NC(Nc2ccccc2)=N/C1=C\c1ccc(F)cc1, which IC50 is on record?
Answer: 3.2 µM

Question: With COc1ccc(/C=C2\N=C(Nc3ccccc3)NC2=O)cc1O as the molecule, how does the IC50 read?
Answer: > 10 µM

Tested on: HT-22
Assay: Neuroprotective activity against glutamate-induced cell death in mouse HT-22 cells treated for 24 hrs by MTS assay
Format: functional, cell-based
Conditions: HT-22, 24 h

Question: Which EC50 does the source give for O=C1NC(Nc2ccccc2)=N/C1=C\c1ccc(F)cc1 here?
Answer: 2.85 µM

Question: For O=C1NC(Nc2ccccc2)=N/C1=C\c1ccccc1, which EC50 is on record?
Answer: 7.2 µM

Question: Which EC50 does the source give for COc1ccc(/C=C2\N=C(Nc3ccccc3)NC2=O)cc1O here?
Answer: 5.57 µM

Question: Which EC50 does the source give for CCCCCCc1ccc(NC2=N/C(=C\c3ccc4c(c3)OCO4)C(=O)N2)cc1 here?
Answer: 1.19 µM

Tested on: U2OS
Assay: Induction of PI3K/mTor-dependent autophagy in human U2OS cells assessed as number of LC3 foci per cell at 10 uM measured after 4 hrs
Format: cell-based
Conditions: filed as activator

Question: For O=C1NC(Nc2ccccc2)=N/C1=C\c1ccc(F)cc1, which Activity is on record?
Answer: 20.2

Question: With O=C1NC(Nc2ccccc2)=N/C1=C\c1ccccc1 as the molecule, how does the Activity read?
Answer: 7.7

Question: With COc1ccc(/C=C2\N=C(Nc3ccccc3)NC2=O)cc1O as the molecule, how does the Activity read?
Answer: 6.5

Question: Which Activity does the source give for CCCCCCc1ccc(NC2=N/C(=C\c3ccc4c(c3)OCO4)C(=O)N2)cc1 here?
Answer: 6.5

Target: Cannabinoid receptor 1 (Homo sapiens, UniProt P21554)
Assay: Antagonist activity at CP-55940-activated CB1 receptor (unknown origin) at 10 uM by beta-arrestin assay relative to control
Format: functional
Set-up: scale not given: the % may be the effect or the level left
Conditions: filed as antagonist

Sequence of Cannabinoid receptor 1 (P21554 whole entry): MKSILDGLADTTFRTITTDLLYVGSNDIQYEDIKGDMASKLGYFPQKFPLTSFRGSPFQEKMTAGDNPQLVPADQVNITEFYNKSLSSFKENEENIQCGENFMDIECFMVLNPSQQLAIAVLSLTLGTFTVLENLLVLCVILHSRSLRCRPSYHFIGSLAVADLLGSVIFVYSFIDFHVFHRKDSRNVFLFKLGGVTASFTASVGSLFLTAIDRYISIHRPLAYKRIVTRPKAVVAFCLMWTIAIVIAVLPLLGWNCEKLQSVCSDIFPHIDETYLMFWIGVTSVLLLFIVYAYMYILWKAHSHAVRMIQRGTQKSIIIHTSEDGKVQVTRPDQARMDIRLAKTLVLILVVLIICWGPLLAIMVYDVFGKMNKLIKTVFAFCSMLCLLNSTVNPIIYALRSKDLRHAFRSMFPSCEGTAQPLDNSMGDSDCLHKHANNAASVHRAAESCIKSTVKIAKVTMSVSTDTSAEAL

Question: Which Activity does the source give for O=C1NC(Nc2ccccc2)=N/C1=C\c1ccc(F)cc1 here?
Answer: 78%

Question: For O=C1NC(Nc2ccccc2)=N/C1=C\c1ccccc1, which Activity is on record?
Answer: 44.6%

Question: For COc1ccc(/C=C2\N=C(Nc3ccccc3)NC2=O)cc1O, which Activity is on record?
Answer: 46.8%

Question: Which Activity does the source give for CCCCCCc1ccc(NC2=N/C(=C\c3ccc4c(c3)OCO4)C(=O)N2)cc1 here?
Answer: 75%

Tested on: not listed separately
Assay: Neurotoxicity against mouse HT-22 cells assessed as cell survival at 20 uM treated for 24 hrs by MTS assay
Format: toxicity, cell-based
Conditions: ht-22, 24 h

Question: With O=C1NC(Nc2ccccc2)=N/C1=C\c1ccc(F)cc1 as the molecule, how does the Activity read?
Answer: Non-Toxic

Question: With O=C1NC(Nc2ccccc2)=N/C1=C\c1ccccc1 as the molecule, how does the Activity read?
Answer: Non-Toxic

Question: Which Activity does the source give for COc1ccc(/C=C2\N=C(Nc3ccccc3)NC2=O)cc1O here?
Answer: Non-Toxic

Question: With CCCCCCc1ccc(NC2=N/C(=C\c3ccc4c(c3)OCO4)C(=O)N2)cc1 as the molecule, how does the Activity read?
Answer: Non-Toxic

Source: ChEMBL document CHEMBL5126517, “Structure-Activity Relationship in the Leucettine Family of Kinase Inhibitors” (J Med Chem, 2022)
